Laboratory results as given in the NIST ThermoML archive (doi:10.1016/j.jct.2009.05.004).
± gives the expanded uncertainty stated by the source.

Test: mn = molality of the nth substance listed, in mol/kg
Conditions: Liquid, Vibrating tube method

[Br-].[Br-].[Zn+2] [zinc bromide] + CCO
Conditions	mass density [kg/m3]
293.13 K, 1123 kPa, m1 = 0.4384	858.07 ± 0.62
293.13 K, 1223 kPa, m1 = 0.9305	929.75 ± 0.62
293.13 K, 5128 kPa, m1 = 0.4384	861.43 ± 0.63
293.13 K, 9704 kPa, m1 = 0.4384	865.15 ± 0.63
293.13 K, 9924 kPa, m1 = 0.9305	937.03 ± 0.62
293.14 K, 1141 kPa, m1 = 1.887	1060.17 ± 0.62
293.14 K, 4877 kPa, m1 = 0.9305	932.86 ± 0.62
293.14 K, 5033 kPa, m1 = 1.887	1063.5 ± 0.62
293.14 K, 5064 kPa, m1 = 0.3043	841.35 ± 0.63
293.14 K, 9847 kPa, m1 = 1.887	1067.49 ± 0.62
293.14 K, 10023 kPa, m1 = 0.05681	807.27 ± 0.64
293.14 K, 14682 kPa, m1 = 0.4384	869.05 ± 0.63
293.14 K, 14840 kPa, m1 = 0.9305	940.94 ± 0.62
293.14 K, 14855 kPa, m1 = 1.887	1071.5 ± 0.62
293.14 K, 20011 kPa, m1 = 0.9305	944.89 ± 0.62
293.14 K, 30124 kPa, m1 = 0.3043	860.11 ± 0.66
293.14 K, 34814 kPa, m1 = 0.9305	955.31 ± 0.63
293.14 K, 39888 kPa, m1 = 0.9305	958.57 ± 0.63
293.14 K, 39952 kPa, m1 = 0.05681	828.27 ± 0.7
293.15 K, 1045 kPa, m1 = 0.3043	838 ± 0.63
293.15 K, 1235 kPa, m1 = 0.05681	800.05 ± 0.63
293.15 K, 1523 kPa, m1 = 1.49	1007.63 ± 0.62
293.15 K, 5024 kPa, m1 = 0.05681	803.22 ± 0.64
293.15 K, 5032 kPa, m1 = 1.49	1010.62 ± 0.62
293.15 K, 10123 kPa, m1 = 0.3043	845.43 ± 0.63
293.15 K, 10214 kPa, m1 = 1.49	1014.92 ± 0.62
293.15 K, 15624 kPa, m1 = 0.05681	811.63 ± 0.65
293.15 K, 15624 kPa, m1 = 1.49	1019.23 ± 0.62
293.15 K, 19877 kPa, m1 = 0.4384	872.96 ± 0.64
293.15 K, 19914 kPa, m1 = 1.887	1075.41 ± 0.62
293.15 K, 20035 kPa, m1 = 1.49	1022.63 ± 0.62
293.15 K, 20124 kPa, m1 = 0.3043	853.06 ± 0.65
293.15 K, 24809 kPa, m1 = 0.4384	876.51 ± 0.64
293.15 K, 25007 kPa, m1 = 0.9305	948.56 ± 0.62
293.15 K, 25014 kPa, m1 = 1.49	1026.32 ± 0.62
293.15 K, 25232 kPa, m1 = 1.887	1079.35 ± 0.63
293.15 K, 25412 kPa, m1 = 0.05681	818.77 ± 0.67
293.15 K, 29867 kPa, m1 = 0.4384	880 ± 0.65
293.15 K, 29915 kPa, m1 = 0.9305	952.01 ± 0.62
293.15 K, 29924 kPa, m1 = 1.49	1029.82 ± 0.62
293.15 K, 29995 kPa, m1 = 1.887	1082.75 ± 0.63
293.15 K, 34624 kPa, m1 = 1.49	1033.04 ± 0.62
293.15 K, 34775 kPa, m1 = 0.4384	883.24 ± 0.65
293.15 K, 35015 kPa, m1 = 0.05681	825.19 ± 0.69
293.15 K, 35078 kPa, m1 = 1.887	1086.23 ± 0.64
293.15 K, 35624 kPa, m1 = 0.3043	863.74 ± 0.67
293.15 K, 39932 kPa, m1 = 1.49	1036.53 ± 0.62
293.16 K, 1293 kPa, m1 = 0.1696	817.98 ± 0.63
293.16 K, 5239 kPa, m1 = 0.1696	821.27 ± 0.63
293.16 K, 9897 kPa, m1 = 0.1696	825.03 ± 0.64
293.16 K, 14684 kPa, m1 = 0.1696	828.75 ± 0.64
293.16 K, 15201 kPa, m1 = 0.3043	849.37 ± 0.64
293.16 K, 19951 kPa, m1 = 0.1696	832.68 ± 0.65
293.16 K, 20035 kPa, m1 = 0.05681	814.92 ± 0.66
293.16 K, 30348 kPa, m1 = 0.1696	839.91 ± 0.67
293.16 K, 35296 kPa, m1 = 0.1696	843.12 ± 0.68
293.16 K, 39385 kPa, m1 = 0.4384	886.15 ± 0.66
293.16 K, 39747 kPa, m1 = 1.887	1089.29 ± 0.64
293.16 K, 39967 kPa, m1 = 0.1696	846 ± 0.69
293.16 K, 39985 kPa, m1 = 0.3043	866.49 ± 0.67
293.17 K, 24971 kPa, m1 = 0.1696	836.26 ± 0.66
293.17 K, 25845 kPa, m1 = 0.3043	857.16 ± 0.65
293.17 K, 30025 kPa, m1 = 0.05681	821.93 ± 0.68
298.14 K, 5021 kPa, m1 = 0.9305	928.53 ± 0.62
298.14 K, 5024 kPa, m1 = 0.4384	857.08 ± 0.63
298.14 K, 5036 kPa, m1 = 0.05681	799.14 ± 0.64
298.14 K, 5036 kPa, m1 = 0.1696	816.98 ± 0.63
298.14 K, 15024 kPa, m1 = 1.887	1066.84 ± 0.62
298.14 K, 15106 kPa, m1 = 0.4384	865.31 ± 0.64
298.14 K, 20014 kPa, m1 = 0.3043	849.06 ± 0.65
298.14 K, 25032 kPa, m1 = 0.9305	944.53 ± 0.62
298.14 K, 25035 kPa, m1 = 0.4384	872.78 ± 0.65
298.14 K, 35024 kPa, m1 = 0.05681	821.61 ± 0.7
298.14 K, 39921 kPa, m1 = 0.05681	824.72 ± 0.71
298.15 K, 1024 kPa, m1 = 0.9305	925.02 ± 0.62
298.15 K, 1024 kPa, m1 = 1.887	1055.01 ± 0.62
298.15 K, 1025 kPa, m1 = 0.4384	853.63 ± 0.62
298.15 K, 1201 kPa, m1 = 0.1696	813.7 ± 0.63
298.15 K, 1324 kPa, m1 = 0.05681	795.94 ± 0.63
298.15 K, 1324 kPa, m1 = 1.49	1002.7 ± 0.62
298.15 K, 1542 kPa, m1 = 0.3043	834.12 ± 0.63
298.15 K, 5214 kPa, m1 = 1.49	1006.13 ± 0.62
298.15 K, 10024 kPa, m1 = 0.4384	861.25 ± 0.63
298.15 K, 10025 kPa, m1 = 0.05681	803.29 ± 0.64
298.15 K, 10025 kPa, m1 = 0.1696	821.11 ± 0.64
298.15 K, 10025 kPa, m1 = 0.3043	841.24 ± 0.63
298.15 K, 10032 kPa, m1 = 0.9305	932.79 ± 0.62
298.15 K, 10035 kPa, m1 = 1.49	1010.24 ± 0.62
298.15 K, 10035 kPa, m1 = 1.887	1062.75 ± 0.62
298.15 K, 15621 kPa, m1 = 1.49	1014.82 ± 0.62
298.15 K, 19956 kPa, m1 = 0.05681	811.06 ± 0.66
298.15 K, 20004 kPa, m1 = 0.9305	940.76 ± 0.62
298.15 K, 20014 kPa, m1 = 0.1696	828.87 ± 0.65
298.15 K, 20031 kPa, m1 = 1.887	1070.82 ± 0.62
298.15 K, 20035 kPa, m1 = 1.49	1018.3 ± 0.62
298.15 K, 25621 kPa, m1 = 0.3043	853.17 ± 0.65
298.15 K, 25621 kPa, m1 = 1.49	1022.52 ± 0.62
298.15 K, 29914 kPa, m1 = 0.05681	818.2 ± 0.68
298.15 K, 29942 kPa, m1 = 1.887	1078.29 ± 0.63
298.15 K, 29954 kPa, m1 = 1.49	1025.66 ± 0.62
298.15 K, 29986 kPa, m1 = 0.1696	835.96 ± 0.67
298.15 K, 30041 kPa, m1 = 0.4384	876.29 ± 0.65
298.15 K, 30065 kPa, m1 = 0.9305	948.14 ± 0.63
298.15 K, 34625 kPa, m1 = 1.49	1028.92 ± 0.62
298.15 K, 34985 kPa, m1 = 0.3043	859.62 ± 0.67
298.15 K, 35104 kPa, m1 = 0.4384	879.69 ± 0.66
298.15 K, 39924 kPa, m1 = 1.49	1032.44 ± 0.62
298.15 K, 39974 kPa, m1 = 1.887	1085.32 ± 0.64
298.15 K, 39985 kPa, m1 = 0.4384	882.8 ± 0.66
298.15 K, 39985 kPa, m1 = 0.9305	954.77 ± 0.63
